Calls of active or inactive are those of the source. The calls are words filed in the database; no cut-off is given here.
Experiments:
LoVo [1] = experiment: Cell cycle arrest in human LoVo cells assessed as accumulation of cells in G0/G1 phase at 20 to 80 nM measured after 24 hrs by PI staining based flow cytometry method; assay type: functional; conditions: dose 20-80 nM
SW-620 [2] = experiment: Cell cycle arrest in human SW-620 cells assessed as accumulation of cells in G0/G1 phase at 20 to 80 nM measured after 24 hrs by PI staining based flow cytometry method; assay type: functional; conditions: dose 20-80 nM
[3] = biological target: Heat shock protein HSP 90-alpha (Homo sapiens, UniProt P07900); experiment: Inhibition of recombinant human N terminal his-tagged HSP90 alpha (1 to 732 residues) expressed in Escherichia coli measured after 60 mins by Flourescence polarization assay
OVCAR-3 = experiment: Antiproliferative activity against human OVCAR-3 cells assessed as inhibition of cell proliferation measured after 24 hrs by MTT assay; assay type: functional, cell-based; conditions: OVCAR-3, 24 h
[4] = Cytotoxicity against human MRC5 cells assessed as reduction in cell viability measured after 24 hrs by MTT assay; assay type: cell-based
LoVo [5] = experiment: Induction of apoptosis in human LoVo cells assessed as viable cells at 20 nM measured after 24 hrs by Annexin V/PI staining based flow cytometry method (reference value: 93.5%); assay type: functional; conditions: read-out: Activity
LoVo [6] = experiment: Induction of apoptosis in human LoVo cells assessed as viable cells at 80 nM measured after 24 hrs by Annexin V/PI staining based flow cytometry method (reference value: 93.5%); assay type: functional; conditions: read-out: Activity
LoVo [7] = experiment: Induction of apoptosis in human LoVo cells assessed as late apoptotic cells at 80 nM measured after 24 hrs by Annexin V/PI staining based flow cytometry method (reference value: 1.6%); assay type: functional
SW-620 [8] = experiment: Induction of apoptosis in human SW-620 cells assessed as late apoptotic cells at 20 nM measured after 24 hrs by Annexin V/PI staining based flow cytometry method (reference value: 1.3%); assay type: functional
SW-620 [9] = experiment: Induction of apoptosis in human SW-620 cells assessed as viable cells at 80 nM measured after 24 hrs by Annexin V/PI staining based flow cytometry method (reference value: 94%); assay type: functional; conditions: read-out: Activity
LoVo [10] = experiment: Inhibition of cell migration in human LoVo cells at 20 to 80 nM measured after 24 hrs by wound healing assay; assay type: functional, cell-based; conditions: dose 20-80 nM
SW-620 [11] = experiment: Antitumour activity against human SW-620 cells xenografted in Balb/c mouse assessed as inhibition of tumour growth at 5 mg/kg, ip measured after 21 days; assay type: functional; conditions: SW-620, ip, 504 h, time 21 day, read-out: TGI
LoVo [12] = experiment: Induction of apoptosis in human LoVo cells assessed as decrease in Bcl-2 levels at 20 to 80 nM measured after 24 hrs by Western blot assay; assay type: functional, cell-based; conditions: dose 20-80 nM
SW-620 [13] = experiment: Induction of apoptosis in human SW-620 cells assessed as increase in Bax levels at 20 to 80 nM measured after 24 hrs by Western blot assay; assay type: functional, cell-based; conditions: dose 20-80 nM
SW-620 [14] = experiment: Induction of apoptosis in human SW-620 cells assessed as decrease in Bcl-2 levels at 20 to 80 nM measured after 24 hrs by Western blot assay; assay type: functional, cell-based; conditions: dose 20-80 nM

Question: With `CC1(C)[C@H]2CC[C@]1(C)N(Cc1cn(-c3cccc(Br)c3)nn1)C(=O)C2` as the molecule, how does the Activity (LoVo [1]) read?
Answer: Active

Question: And the Activity (SW-620 [2])?
Answer: Active

Question: What about the IC50 [3] of the same molecule?
Answer: 0.71 nM

Question: What about the IC50 (OVCAR-3) of the same molecule?
Answer: 30 nM

Question: And the CC50 at 24 h [4]?
Answer: 38.8 µM

Question: What about the viability at 0.02 µM (LoVo [5]) of the same molecule?
Answer: 91.9%

Question: And the viability at 0.08 µM (LoVo [6])?
Answer: 61.7%

Question: What about the Activity (LoVo [7]) of the same molecule?
Answer: 24.9%

Question: And the Activity (SW-620 [8])?
Answer: 8.5%

Question: And the viability at 0.08 µM (SW-620 [9])?
Answer: 46.4%

Question: And the inhibition (LoVo [10])?
Answer: Dose-Dependent Effect

Question: And the inhibition in vivo at 5 mg/kg (SW-620 [11])?
Answer: 81.6%

Question: What about the Activity (LoVo [12]) of the same molecule?
Answer: Active

Question: And the Activity (SW-620 [13])?
Answer: Active

Question: What about the Activity (SW-620 [14]) of the same molecule?
Answer: Active

Reference: ChEMBL document CHEMBL4813917, “2-((1-Phenyl-1H-1,2,3-triazol-4-yl)methyl)-2-azabicyclo[3.2.1]octan-3-one derivatives: Simplification and modification of aconitine scaffold for the discovery of novel anticancer agents” (Eur J Med Chem, 2021)
